Laboratory results taken from patent publication US20220257595A1, “MACITENTAN FOR USE IN TREATING PORTOPULMONARY HYPERTENSION” (ACTELION PHARMACEUTICALS LTD, priority 2019, published 2022).
Values joined by “and” are separate entries in the source; they are usually repeats but may differ in a detail not shown here. Identical values can stand only once.

System: patients with PoPH
Experiment: PORTICO safety: treatment-emergent AEs, SAEs, AESIs, deaths, discontinuations
Type: in vivo
Description: For the evaluation of treatment-emergent safety endpoints in the DB phase, the observation period for each individual subject started at the time of the first administration of macitentan or placebo and ended with the start of OL treatment or 30 days after DB treatment discontinuation (whichever occurred first). The safety variables listed below apply to the DB treatment-emergent period and the macitentan treatment-emergent period. The DB treatment-emergent period was defined as the period from the DB treatment start date up to the EOT-DB+30 days or to the EOT-DB for patients entering OL. The macitentan treatment-emergent period was defined as the period from the first intake of macitentan up to end of macitentan treatment (EOMT)+30 days. EOMT was defined as EOT-DB (for patient who received macitentan only in the DB period) or EOT-OL when applicable. For patients entering OLE, the EOMT is EOT-OL. • Treatment-emergent AEs • Treatment-emergent deaths • Treatment-emergent serious adverse events (SAEs) • AEs leading to premature discontinuation of study treatment • Occurrence of post-baseline LFT (ALT and/or AST) abnormalities, classified as: • ≥3×ULN; • ≥5×ULN; • ≥8×ULN; • ≥3×ULN and <5×ULN; • […] and <8×ULN. • Occurrence of post-baseline ALT and/or AST abnormality 3×ULN and concomitant (i.e., at the same time) total bilirubin ≥2×ULN • Occurrence of post-baseline ALT and/or AST abnormality ≥3×ULN and concomitant (i.e., at the same time) total bilirubin ≥2×ULN and increased as compared to baseline • Occurrence of hemoglobin abnormalities, classified as: • ≤80 g/L, • >80 and ≤100 g/L, • decrease from baseline ≥20 g/L and <50 g/L, • decrease from baseline ≥50 g/L, • <100 g/L and concurrent (i.e., at the same time) decrease from baseline ≥20 g/L. • Other treatment-emergent marked laboratory abnormalities • Change from baseline/macitentan baseline to EOT-DB/EOMT in vital signs • Change from baseline/macitentan baseline to EOT-DB/EOMT in laboratory variables • Change from baseline/macitentan baseline to EOT-DB/EOMT in Child-Pugh classification • Change from baseline/macitentan baseline to EOT-DB/EOMT in MELD score
(i) Adverse events: All AEs occurring after study start (i.e., signing of informed consent) and up to 30 days after study treatment discontinuation were required to be recorded. AEs still ongoing more than 30 days after study treatment discontinuation were required to be followed up until they were no longer considered clinically relevant.
(ii) Serious adverse events, including associated with study design or protocol-mandated procedures: During the screening period, all SAEs occurring after study start (i.e., signing of informed consent) were required to be recorded (whether considered associated or not associated to study design or study-mandated procedures). All SAEs, regardless of investigator-attributed causal relationship, occurring during the treatment period up to the end of the 30-day follow up period, were required to be reported. SAEs still ongoing at the EOS visit were required to be followed up until resolution or stabilization, or until the event outcome was provided, e.g., death. New SAEs occurring after the 30-day follow-up period were required to be reported within 24 hours.
In addition, the following adverse events of special interest (AESIs) were analyzed: • “Edema and fluid retention”
Any treatment-emergent AE with PT listed in the Standardised MedDRA Query (SMQ) “Haemodynamic oedema, effusions and fluid overload (SMQ)” or with PT equal to “Pulmonary congestion” defined in the latest available MedDRA version, with the exception of PTs containing “site”. • “Anemia”

[1] = macitentan DB + OL phase, Macitentan treated set, N = 84
[2] = macitentan DB+OL phase, MTS N=84

CCCNS(=O)(=O)Nc1ncnc(OCCOc2ncc(Br)cn2)c1-c1ccc(Br)cc1 [macitentan, N-[5-(4-Bromophenyl)-6-[2-[(5-bromo-2-pyrimidinyl)oxy]ethoxy]-4-pyrimidinyl]-N′-propylsulfamide]
AEs of special interest Hepatic disorders, Blood bilirubin increased [1]: 1 (1.2) n (%) | AEs of special interest Hepatic disorders, Hepatocellular carcinoma [1]: 1 (1.2) n (%) | AEs of special interest Hepatic disorders, Jaundice [1]: 1 (1.2) n (%) | AEs of special interest Hepatic disorders, Liver function test abnormal [1]: 1 (1.2) n (%) | AEs of special interest Hepatic disorders, Liver function test increased [1]: 1 (1.2) n (%) | AEs of special interest Hepatic disorders, Portal hypertensive gastropathy [1]: 1 (1.2) n (%) | AEs of special interest Hepatic disorders, Portopulmonary hypertension [1]: 1 (1.2) n (%) | AEs of special interest Hepatic disorders, Subjects with atleast one AE [1]: 13 (15.5) n (%) | AEs of special interest Hepatic disorders, Total bile acids increased [1]: 2 (2.4) n (%) | AEs of special interest Hepatic disorders, Varices oesophageal [1]: 1 (1.2) n (%) | Subjects with at least one AE [1]: 74 (88.1) n (%) | Subjects with at least one SAE [1]: 25 (29.8) n(%) | Treatment-emergent AE, Abdominal pain [1]: 4 (4.8) n (%) | Treatment-emergent AE, Acute kidney injury [1]: 3 (3.6) n (%) | Treatment-emergent AE, Anaemia [1]: 12 (14.3) n (%) | Treatment-emergent AE, Arthralgia [1]: 3 (3.6) n (%) | Treatment-emergent AE, Ascites [1]: 4 (4.8) n (%) | Treatment-emergent AE, Asthenia [1]: 4 (4.8) n (%) | Treatment-emergent AE, Bronchitis [1]: 8 (9.5) n (%) | Treatment-emergent AE, Dizziness [1]: 7 (8.3) n (%) | Treatment-emergent AE, Dyspnoea [1]: 4 (4.8) n (%) | Treatment-emergent AE, Dyspnoea exertional [1]: 3 (3.6) n (%) | Treatment-emergent AE, Fall [1]: 3 (3.6) n (%) | Treatment-emergent AE, Haemoglobin decreased [1]: 6 (7.1) n (%) | Treatment-emergent AE, Headache [1]: 16 (19.0) n (%) | Treatment-emergent AE, Hepatic encephalopathy [1]: 4 (4.8) n (%) | Treatment-emergent AE, Hypokalaemia [1]: 3 (3.6) n (%) | Treatment-emergent AE, Hypotension [1]: 4 (4.8) n (%) | Treatment-emergent AE, Influenza like illness [1]: 3 (3.6) n (%) | Treatment-emergent AE, Iron deficiency anaemia [1]: 3 (3.6) n (%) | Treatment-emergent AE, Muscle spasms [1]: 3 (3.6) n (%) | Treatment-emergent AE, Nausea [1]: 4 (4.8) n (%) | Treatment-emergent AE, Oedema peripheral [1]: 23 (27.4) n (%) | Treatment-emergent AE, Pain in extremity [1]: 7 (8.3) n (%) | Treatment-emergent AE, Pruritus [1]: 3 (3.6) n (%) | Treatment-emergent AE, Pulmonary arterial hypertension [1]: 3 (3.6) n (%) | Treatment-emergent AE, Rash [1]: 3 (3.6) n (%) | Treatment-emergent AE, Rhinitis [1]: 5 (6.0) n (%) | Treatment-emergent AE, Right ventricular failure [1]: 6 (7.1) n (%) | Treatment-emergent AE, Urinary tract infection [1]: 3 (3.6) n (%) | Treatment-emergent AE, Viral upper respiratory tract infection [1]: 4 (4.8) n (%) | Treatment-emergent AE, Vomiting [1]: 3 (3.6) n (%) | Treatment-emergent SAE, Abdominal pain [1]: 1 (1.2) n(%) | Treatment-emergent SAE, Acute kidney injury [1]: 2 (2.4) n(%) | Treatment-emergent SAE, Alveolitis [1]: 1 (1.2) n(%) | Treatment-emergent SAE, Anaemia [1]: 2 (2.4) n(%) | Treatment-emergent SAE, Ascites [1]: 2 (2.4) n(%) | Treatment-emergent SAE, Asthma [1]: 1 (1.2) n(%) | Treatment-emergent SAE, Atrial fibrillation [1]: 1 (1.2) n(%) | Treatment-emergent SAE, Bronchitis [1]: 1 (1.2) n(%) | Treatment-emergent SAE, Chronic kidney disease [1]: 1 (1.2) n(%) | Treatment-emergent SAE, Fall [1]: 1 (1.2) n(%) | Treatment-emergent SAE, Fluid overload [1]: 1 (1.2) n(%) | Treatment-emergent SAE, Gastrointestinal haemorrhage [1]: 1 (1.2) n(%) | Treatment-emergent SAE, Haemoptysis [1]: 1 (1.2) n(%) | Treatment-emergent SAE, Hepatic encephalopathy [1]: 3 (3.6) n(%) | Treatment-emergent SAE, Hepatocellular carcinoma [1]: 1 (1.2) n(%) | Treatment-emergent SAE, Humerus fracture [1]: 1 (1.2) n(%) | Treatment-emergent SAE, Hypersensitivity [1]: 1 (1.2) n(%) | Treatment-emergent SAE, Ileus [1]: 1 (1.2) n(%) | Treatment-emergent SAE, Intervertebral disc protrusion [1]: 1 (1.2) n(%) | Treatment-emergent SAE, Iron deficiency anaemia [1]: 1 (1.2) n(%) | Treatment-emergent SAE, Left ventricular failure [1]: 1 (1.2) n(%) | Treatment-emergent SAE, Liver function test increased [1]: 1 (1.2) n(%) | Treatment-emergent SAE, Localised oedema [1]: 1 (1.2) n(%) | Treatment-emergent SAE, Lung infection [1]: 1 (1.2) n(%) | Treatment-emergent SAE, Malignant ascites [1]: 1 (1.2) n(%) | Treatment-emergent SAE, Melaena [1]: 2 (2.4) n(%) | Treatment-emergent SAE, Oedema peripheral [1]: 2 (2.4) n(%) | Treatment-emergent SAE, Osteitis [1]: 1 (1.2) n(%) | Treatment-emergent SAE, Pneumonia [1]: 1 (1.2) n(%) | Treatment-emergent SAE, Presyncope [1]: 1 (1.2) n(%) | Treatment-emergent SAE, Priapism [1]: 1 (1.2) n(%) | Treatment-emergent SAE, Pulmonary arterial hypertension [1]: 2 (2.4) n(%) | Treatment-emergent SAE, Pulmonary toxicity [1]: 1 (1.2) n(%) | Treatment-emergent SAE, Right ventricular failure [1]: 4 (4.8) n(%) | Treatment-emergent SAE, Staphylococcal infection [1]: 1 (1.2) n(%) | Treatment-emergent SAE, Subdural haematoma [1]: 1 (1.2) n(%) | Treatment-emergent SAE, Syncope [1]: 1 (1.2) n(%) | Treatment-emergent SAE, Thrombocytopenia [1]: 1 (1.2) n(%) | Treatment-emergent SAE, Tinnitus [1]: 1 (1.2) n(%) | Treatment-emergent SAE, Troponin I increased [1]: 1 (1.2) n(%) | Treatment-emergent SAE, Urosepsis [1]: 1 (1.2) n(%) | Anemia AEs reported as SAEs (macitentan DB+OL phase): 2 and 3 | Patients who discontinued treatment due to AEs (macitentan DB+OL phase): 10 patients | Patients who had an SAE (macitentan DB+OL phase): 29.8% | Patients with edema and fluid retention AEs reported as serious (macitentan DB+OL phase): 2 patients | Patients with hepatic disorder AEs reported as SAEs (macitentan DB+OL phase): 5 patients | Peripheral edema leading to discontinuation of treatment (macitentan DB+OL phase): 2 patients | Patients with hepatic disorder AEs (macitentan DB+OL phase (13 patients)): 15.5% | Patients with anemia AEs (macitentan DB+OL phase (22 patients)): 26.2% | Patients with edema and fluid retention AEs (macitentan DB+OL phase (26 patients)): 31.0% | Decreased hemoglobin considered related to study treatment (macitentan DB+OL phase, 3 patients): 3.6% | Most frequent severe AEs (peripheral edema, right ventricular failure, acute kidney injury), each (macitentan DB+OL phase, 3 patients each): 3.6% | Anemia considered related to study treatment (macitentan DB+OL phase, 4 patients): 4.8% | Peripheral edema considered related to study treatment (macitentan DB+OL phase, 10 patients): 11.9% | Headache considered related to study treatment (macitentan DB+OL phase, 11 patients): 13.1% | Patients with AEs of severe intensity (macitentan DB+OL phase, 19 patients): 22.6% | Subjects with AE leading to study drug discontinuation [2]: 10 (11.9) n (%) | Subjects with Drug-Related AE [2]: 33 (39.3) n (%) | Subjects with Drug-Related serious AE [2]: 8 (9.5) n (%) | Subjects with Fatal serious AE [2]: 4 (4.8) n (%) | Subjects with Serious AE [2]: 25 (29.8) n (%) | Subjects with Severe AE [2]: 19 (22.6) n (%) | Subjects with at least one AE (macitentan DB+OL phase, Macitentan treated set N=84): 74 (88.1) n (%) | Overall safety and tolerability (patients with PoPH and mild or moderate liver impairment): good safety profile and is well tolerated
